Measurements from patent US6963012B2, “Diaryl ether derivative, addition salt thereof, and immunosuppressant” (Kyorin Pharmaceutical Co., Ltd., priority 2001, dated 2005).
Structures can show the parent of a compound that is named as a salt.

Experiments:
[1] = test system: Host vs Graft Rejection in Mice; assay: Ability of test compounds to suppress host vs graft rejection in mice (popliteal lymph node weight); format: in vivo, mice (C3H/HeN, BALB/c stimulation cells); conditions: Mus musculus
Description: Ability of Test Compounds to Suppress Host vs Graft Rejection in Mice
This experiment was performed according to the method described in Transplantation, 55, No.3 (1993): 578-591. Spleens were collected from 9 to 11 week old male BALB/c mice (CLEA JAPAN Inc., CHARLES RIVER JAPAN Inc., or JAPAN SLC Inc.). The spleens were placed in a phosphate-buffered saline (PBS(−), NISSUI PHARMACEUTICAL Co., Ltd.) or in an RPMI-1640 medium (GIBCO […] Inc., or IWAKI GLASS Co., Ltd.) and were either passed through a stainless steel mesh, or gently pressed between two slide glasses and then passed through a cell strainer (70 μm, Falcon), to form a cell suspension. The suspension was then centrifuged and the supernatant was discarded. An ammonium chloride-Tris isotonic buffer was added to the suspension to lyse erythrocytes. The cells were then centrifuged and washed three times in PBS (−) or RPMI-1640 medium and were resuspended in an RPMI-1640 medium. To this suspension, mitomycin C (KYOWA HAKKO KOGYO Co., Ltd.) was added to a final concentration of 25 μg/mL and the suspension was incubated for 30 minutes at 37° C. in a 5% CO2 atmosphere. The cells were again centrifuged and washed in PBS (−) or RPMI-1640 medium and were resuspended in an RPMI-1640 medium so that the medium would contain 2.5×10^8 cells/mL. This suspension served as a “stimulation cell suspension.” Using a 27G needle along with a microsyringe (Hamilton), 20 μL (5×10^6 cells/mouse) of the stimulation cell suspension was subcutaneously injected into the right hind footpad of 7 to 9 week old male C3H/HeN mice (CLEA JAPAN Inc., CHARLES RIVER JAPAN Inc., or JAPAN SLC Inc.). A group of mice was injected with RPMI-1640 medium alone to serve as normal control. 4 days after the injection, right popliteal lymph nodes were collected and were weighed on a Mettler AT201 electronic scale (METTLER TOLEDO Co., Ltd.). Each animal was intraperitoneally administered a test compound once a day for four consecutive days starting on the day of the injection of the stimulation cells (i.e., total of 4 times). Controls were administered a vehicle that has the same composition as that used in the preparation of the test compounds.

[2] = test system: Delayed-type Hypersensitivity in Mice; assay: Ability of test compounds to suppress delayed-type hypersensitivity in mice (DNFB, ear thickness); format: in vivo, mice (BALB/c); conditions: dose 3 mg/kg, orally, 30 minutes before DNFB challenge; increase in ear thickness 24 hours after the challenge
Description: <Experiment 2> Ability of Test Compounds to Suppress Delayed-type Hypersensitivity in Mice. […] The sensitization was done for 2 consecutive days (day 0 and day 1). On day 5, the ears of the mice were challenged with the antigen to induce delayed-type hypersensitive responses: First, the thickness of each ear was measured by the dial thickness gauge G (0.01-10 mm, OZAKI MFG Co., Ltd.). Next, a test compound was administered. 30 minutes after the administration, 10 μL of a 0.2% (v/v) DNFB solution was applied to the inner and outer surfaces of the right ear of each animal for antigen challenge. The left ear of each animal was challenged with the solvent alone. 24 hours after the challenge, the increase in the ear thickness was measured for each ear and the difference between the right and the left ears was determined for each individual. The test compound was dissolved, or suspended, in an ultra pure water and was orally administered at a dose of 0.1 mL/10 g of body weight. A control group was administered ultra pure water alone.

melting point [°C] | SMILES | inhibition at 10 mg/kg [1] [%] | inhibition at 3 mg/kg [1] [%] | Inhibition [2] [%]
203 to 206 | Cl.NC(CO)(CO)C/C=C/c1ccc(Oc2cc(C(F)(F)F)cc(C(F)(F)F)c2)cc1 |  |  | 
151 to 155 | Cl.NC(CO)(CO)CCOc1ccc(Oc2cc(C(F)(F)F)cc(C(F)(F)F)c2)cc1 |  |  | 
150 to 152 | Cl.NC(CO)(CO)CCc1ccc(Oc2cccc(OCc3ccccc3)c2)cc1Cl |  |  | 
194 to 196 | Cl.NC(CO)(CO)CCCc1ccc(Oc2cc(C(F)(F)F)cc(C(F)(F)F)c2)cc1 [Example 147, 2-amino-2-[4-(3,5-bistrifluoromethylphenoxy)phenyl]propyl-1,3-propanediol hydrochloride] | 82 |  | 

Further lines, the compound ahead of its results:

SMILES | melting point [°C] | inhibition at 10 mg/kg [1] [%] | inhibition at 3 mg/kg [1] [%] | Inhibition [2] [%]
Cl.NC(CO)(CO)CCCCc1ccc(Oc2cccc(OCc3ccccc3)c2)cc1Cl | 95 to 97 |  |  | 
Cl.NC(CO)(CO)CCCc1ccc(Oc2cccc(OCCCc3ccccc3)c2)cc1 [Example 148, 2-amino-2-[4-(3-phenylpropyloxyphenoxy)phenyl]propyl-1,3-propanediol hydrochloride] | 95 to 98 |  | 78 | 
CC(C)c1cccc(Oc2ccc(CCCC(N)(CO)CO)cc2)c1 [Example 150, 2-amino-2-[4-(3-isopropylphenoxy)phenyl]propyl-1,3-propanediol hydrochloride] |  | 78 |  | 
Cl.NC(CO)(CO)CCCc1ccc(Oc2cccc(OCc3ccccc3)c2)cc1Cl [Example 173, 2-amino-2-[4-(3-benzyloxyphenoxy)-2-chlorophenyl]propyl-1,3-propanediol hydrochloride] | 105 to 106 |  | 100 | 64
